This assay relates to CD2F1 mice, L1210 leukemia ip, survival T/C. Briefly: NCI In Vivo Anticancer Drug Screen. Data for tumor model L1210 Leukemia (intraperitoneal) in CD2F1 (CDF1) mice. The conditions noted are these: higher = longer survival. An outline of the steps: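 Compound-dosed mice with transplantable tumor versus matched vehicle controls; endpoint ratio T/C reported.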
Where [1] appears, read: endpoint: mean survival time, dose: 100.0 mg/kg/injection, schedule: Q01DX001 (ip), vehicle: saline with Tween-80.
[2] abbreviates: endpoint: mean survival time, dose: 200.0 mg/kg/injection, schedule: Q01DX001 (ip), vehicle: saline with Tween-80.
The mark [3] stands for this setting: endpoint: mean survival time, dose: 400.0 mg/kg/injection, schedule: Q01DX001 (ip), vehicle: saline with Tween-80.
Where [4] appears, read: endpoint: mean survival time, dose: 25.0 mg/kg/injection, schedule: Q01DX009 (ip), vehicle: other.
Where [5] appears, read: endpoint: mean survival time, dose: 50.0 mg/kg/injection, schedule: Q01DX009 (ip), vehicle: other.
Where [6] appears, read: endpoint: mean survival time, dose: 100.0 mg/kg/injection, schedule: Q01DX009 (ip), vehicle: other.
The mark [7] stands for this setting: endpoint: mean survival time, dose: 200.0 mg/kg/injection, schedule: Q01DX009 (ip), vehicle: other.
Setting [8] is: endpoint: mean survival time, dose: 50.0 mg/kg/injection, schedule: Q01DX009 (ip), vehicle: saline with Tween-80.
[9] abbreviates: endpoint: mean survival time, dose: 100.0 mg/kg/injection, schedule: Q01DX009 (ip), vehicle: saline with Tween-80.
The mark [10] stands for this setting: endpoint: mean survival time, dose: 100.0 mg/kg/injection, schedule: Q04DX003 (ip), vehicle: saline with Tween-80.
Setting [11] is: endpoint: mean survival time, dose: 200.0 mg/kg/injection, schedule: Q01DX009 (ip), vehicle: saline with Tween-80.
Where [12] appears, read: endpoint: mean survival time, dose: 200.0 mg/kg/injection, schedule: Q04DX003 (ip), vehicle: saline with Tween-80.
[13] abbreviates: endpoint: mean survival time, dose: 400.0 mg/kg/injection, schedule: Q04DX003 (ip), vehicle: saline with Tween-80.

Each structure is given as a SMILES string. Where “and” joins values, the source holds several entries; their conditions need not be identical. Equal values may be shown once. Toxic doses and inconclusive results are not listed.

For `Cc1c(-c2ccc(C3CCCCC3)cc2)nc2ccc(F)cc2c1C(=O)O`, the T/C (endpoint: median survival time, dose: 12.5 mg/kg/injection, schedule: Q01DX005 (ip), vehicle: Klucel (hydroxypropylcellulose) (HPC)) is 109 % of control; the T/C (endpoint: median survival time, dose: 12.5 mg/kg/injection, schedule: Q01DX005 (ip), vehicle: sodium bicarbonate) is 114 % of control and 104 % of control; the T/C (endpoint: median survival time, dose: 25.0 mg/kg/injection, schedule: Q01DX005 (ip), vehicle: Klucel (hydroxypropylcellulose) (HPC)) was 110 % of control; the T/C (endpoint: median survival time, dose: 25.0 mg/kg/injection, schedule: Q01DX005 (ip), vehicle: sodium bicarbonate) is 122 % of control and 108 % of control; the T/C (endpoint: median survival time, dose: 50.0 mg/kg/injection, schedule: Q01DX005 (ip), vehicle: sodium bicarbonate) was 123 % of control and 124 % of control and 104 % of control; the T/C (endpoint: median survival time, dose: 100.0 mg/kg/injection, schedule: Q01DX005 (ip), vehicle: sodium bicarbonate) is 120 % of control and 109 % of control. For the same compound, the T/C is, setting by setting: (endpoint: median survival time, dose: 100.0 mg/kg/injection, schedule: Q01DX009 (ip), vehicle: Klucel (hydroxypropylcellulose) (HPC)) 182 % of control; (endpoint: median survival time, dose: 200.0 mg/kg/injection, schedule: Q01DX009 (ip), vehicle: Klucel (hydroxypropylcellulose) (HPC)) 183 % of control; (endpoint: median survival time, dose: 400.0 mg/kg/injection, schedule: Q01DX009 (ip), vehicle: Klucel (hydroxypropylcellulose) (HPC)) 89 % of control.
`Nc1n[n+](-c2ccc(Cl)cc2)no1`: the T/C was 92 % of control (endpoint: mean survival time, dose: 1.56 mg/kg/injection, schedule: Q01DX009 (ip), vehicle: water); 97 % of control and 112 % of control (endpoint: mean survival time, dose: 3.12 mg/kg/injection, schedule: Q01DX009 (ip), vehicle: water); 93 % of control and 96 % of control (endpoint: mean survival time, dose: 6.25 mg/kg/injection, schedule: Q01DX009 (ip), vehicle: water); 95 % of control and 98 % of control (endpoint: mean survival time, dose: 12.5 mg/kg/injection, schedule: Q01DX009 (ip), vehicle: water); 103 % of control and 104 % of control (endpoint: mean survival time, dose: 25.0 mg/kg/injection, schedule: Q01DX009 (ip), vehicle: water); 114 % of control (endpoint: mean survival time, dose: 50.0 mg/kg/injection, schedule: Q01DX009 (ip), vehicle: water).
With `O=[N+]([O-])c1ccc(NCS(=O)(=O)O)cc1`, the T/C reads like this: under setting [1], 91 % of control; under setting [2], 94 % of control; under setting [3], 87 % of control.
On to `Cc1ccc(CN(C)N=Nc2ccc(C(=O)O)cc2)cc1`, for which the T/C was 91 % of control under setting [4], 87 % of control under setting [5], 91 % of control under setting [6] and 87 % of control under setting [7].
Regarding `CC(=O)OC1C(CNC(=O)N(C)N=O)OC(OC2(CNC(=O)N(C)N=O)OC(CNC(=O)N(C)N=O)C(OC(C)=O)C2OC(C)=O)C(OC(C)=O)C1OC(C)=O` (configuration not stated), the T/C runs as follows: (endpoint: mean survival time, dose: 12.5 mg/kg/injection, schedule: Q01DX009 (ip), vehicle: other) 93 % of control; under setting [4], 94 % of control; under setting [5], 104 % of control; under setting [6], 102 % of control; under setting [7], 120 % of control.
With `COc1ccc(CNCCO)cc1O`, the T/C is, setting by setting: (endpoint: mean survival time, dose: 100.0 mg/kg/injection, schedule: Q01DX001 (ip), vehicle: saline) 101 % of control; (endpoint: mean survival time, dose: 200.0 mg/kg/injection, schedule: Q01DX001 (ip), vehicle: saline) 98 % of control; (endpoint: mean survival time, dose: 400.0 mg/kg/injection, schedule: Q01DX001 (ip), vehicle: saline) 98 % of control.
In the case of `CC(C)(C)OC(=O)NNC(=O)c1ccc([N+](=O)[O-])cc1`, the T/C is 172 % of control (endpoint: mean survival time, dose: 6.25 mg/kg/injection, schedule: Q01DX009 (ip), vehicle: alcohol); 100 % of control (endpoint: mean survival time, dose: 12.5 mg/kg/injection, schedule: Q01DX009 (ip), vehicle: alcohol); 97 % of control (endpoint: mean survival time, dose: 25.0 mg/kg/injection, schedule: Q01DX009 (ip), vehicle: alcohol).
Take `C/C=C(\C)C(C)(C#N)Nc1ccccc1` (configuration not stated): the T/C by setting is: under setting [8], 103 % of control; under setting [9], 100 % of control; under setting [10], 101 % of control; under setting [11], 102 % of control; under setting [12], 101 % of control; under setting [13], 95 % of control.
`COCC(O)CN1CCN(c2cccc3c2CCCC3)CC1` (configuration not stated): the T/C is, setting by setting: under setting [1], 97 % of control; under setting [2], 100 % of control.
Take `O=C(O)CCC(=O)c1ccc(Cl)cc1`: the T/C was 112 % of control (endpoint: mean survival time, dose: 3.13 mg/kg/injection, schedule: Q04DX002 (ip), vehicle: saline with Tween-80); 97 % of control (endpoint: mean survival time, dose: 6.25 mg/kg/injection, schedule: Q04DX002 (ip), vehicle: saline with Tween-80); 93 % of control (endpoint: mean survival time, dose: 12.5 mg/kg/injection, schedule: Q04DX002 (ip), vehicle: saline with Tween-80); 97 % of control (endpoint: mean survival time, dose: 25.0 mg/kg/injection, schedule: Q04DX002 (ip), vehicle: saline with Tween-80); 94 % of control (endpoint: median survival time, dose: 200.0 mg/kg/injection, schedule: Q04DX002 (ip), vehicle: saline with Tween-80).
For `NC(=S)N/N=C/c1ccc(OC(=O)COc2ccccc2)cn1`, the T/C was 123 % of control (endpoint: mean survival time, dose: 88.0 mg/kg/injection, schedule: Q04DX003 (ip), vehicle: saline with Tween-80); 118 % of control (endpoint: mean survival time, dose: 100.0 mg/kg/injection, schedule: Q04DX002 (ip), vehicle: saline with Tween-80); 122 % of control (endpoint: mean survival time, dose: 200.0 mg/kg/injection, schedule: Q04DX002 (ip), vehicle: saline with Tween-80); 118 % of control under setting [12]; 152 % of control and 155 % of control (endpoint: mean survival time, dose: 400.0 mg/kg/injection, schedule: Q04DX002 (ip), vehicle: saline with Tween-80); 174 % of control (endpoint: mean survival time, dose: 800.0 mg/kg/injection, schedule: Q04DX002 (ip), vehicle: saline with Tween-80).
On to `CC(=O)OC(c1ccccc1)(c1ccccc1)c1ccncc1`, for which the T/C was 93 % of control (endpoint: mean survival time, dose: 100.0 mg/kg/injection, schedule: Q04DX003 (ip), vehicle: other); 89 % of control (endpoint: mean survival time, dose: 200.0 mg/kg/injection, schedule: Q04DX003 (ip), vehicle: other); 93 % of control (endpoint: mean survival time, dose: 400.0 mg/kg/injection, schedule: Q04DX003 (ip), vehicle: other).
On to `C/C(=C/C#N)c1ccccc1`, for which the T/C was 101 % of control under setting [8], 97 % of control under setting [9], 100 % of control under setting [10] and 100 % of control under setting [12].
As to `CC(=O)CC(=O)C(F)(F)F.CC(=O)CC(=O)C(F)(F)F.[O]=[V]`, the T/C by setting is: (endpoint: mean survival time, dose: 3.8 mg/kg/injection, schedule: Q01DX009 (ip), vehicle: saline with Tween-80) 95 % of control; (endpoint: mean survival time, dose: 7.5 mg/kg/injection, schedule: Q01DX009 (ip), vehicle: saline with Tween-80) 93 % of control; (endpoint: mean survival time, dose: 15.0 mg/kg/injection, schedule: Q01DX009 (ip), vehicle: saline with Tween-80) 92 % of control.
For the compound `Cc1oc2ncnc(N)c2c1C`, the T/C under setting [10] is 96 % of control, the T/C under setting [12] was 100 % of control and the T/C under setting [13] is 95 % of control.
As for `COc1cc2c(cc1OC)C(Cc1ccc(NC(=O)c3ccc(C(=O)Nc4ccc(CC5c6cc(OC)c(OC)cc6CCN5C)cc4)cc3)cc1)N(C)CC2` (configuration not stated), the T/C is 107 % of control (endpoint: mean survival time, dose: 100.0 mg/kg/injection, schedule: Q01DX001 (ip), vehicle: other); 101 % of control (endpoint: mean survival time, dose: 200.0 mg/kg/injection, schedule: Q01DX001 (ip), vehicle: other); 103 % of control (endpoint: mean survival time, dose: 400.0 mg/kg/injection, schedule: Q01DX001 (ip), vehicle: other).
As for `CCCC/C=C/C1CCCCO1` (configuration not stated), the T/C reads like this: under setting [8], 94 % of control; under setting [9], 97 % of control; under setting [11], 105 % of control.
As to `O=C(COc1cccc(Cl)c1)NCc1ccc(NC(=O)c2ccc(S(=O)(=O)F)cc2)cc1`, the T/C is 96 % of control under setting [1], 91 % of control under setting [2] and 87 % of control under setting [3].
Turning to `Cc1cn(C2CC3[O][Sn]([CH3])([CH3])[O]CC3O2)c(=O)[nH]c1=O` (configuration not stated), the T/C runs as follows: (endpoint: mean survival time, dose: 12.5 mg/kg/injection, schedule: Q01DX005 (ip), vehicle: other) 105 % of control; (endpoint: mean survival time, dose: 25.0 mg/kg/injection, schedule: Q01DX005 (ip), vehicle: other) 108 % of control; (endpoint: mean survival time, dose: 50.0 mg/kg/injection, schedule: Q01DX005 (ip), vehicle: other) 103 % of control.
With `CN(C)N=Nc1cc(C(F)(F)F)cc(C(F)(F)F)c1`, the T/C reads like this: (endpoint: mean survival time, dose: 25.0 mg/kg/injection, schedule: Q01DX009 (ip), vehicle: saline with Tween-80) 104 % of control; under setting [8], 101 % of control; under setting [9], 98 % of control; under setting [11], 95 % of control; (endpoint: mean survival time, dose: 400.0 mg/kg/injection, schedule: Q01DX009 (ip), vehicle: saline with Tween-80) 104 % of control.

These data come from PubChem BioAssay AID256 (DTP/NCI, 2004).
